Reference: ChEMBL document CHEMBL4627310, “Design, synthesis and biological evaluation of 3-nitro-1,8-naphthalimides as potential antitumor agents” (Bioorg Med Chem Lett, 2020)
Active and inactive are the calls of the source. The rule behind the calls is not given here.

Assays:
[1] = test system: T-24; assay: Induction of apoptosis in human T24 cells assessed as live cells at 4.13 uM by AnnexinV/propidium iodide staining based flow cytometry (reference value: 99.1%); type: functional
[2] = test system: T-24; assay: Cell cycle arrest in human T24 cells assessed as accumulation at G2/M phase at 2.06 uM measured after 24 hrs by propidium iodide staining based fluorescence analysis (reference value: 10.16%); type: functional
[3] = test system: T-24; assay: Cell cycle arrest in human T24 cells assessed as accumulation at G2/M phase at 8.26 uM measured after 24 hrs by propidium iodide staining based fluorescence analysis (reference value: 10.16%); type: functional
[4] = biological target: T1, DNA topoisomerase 1 (Homo sapiens) (UniProt P11387); assay: Inhibition of topoisomerase 1 (unknown origin) mediated DNA relaxation at 20 uM by gel electrophoresis assay
T1 sequence (whole entry): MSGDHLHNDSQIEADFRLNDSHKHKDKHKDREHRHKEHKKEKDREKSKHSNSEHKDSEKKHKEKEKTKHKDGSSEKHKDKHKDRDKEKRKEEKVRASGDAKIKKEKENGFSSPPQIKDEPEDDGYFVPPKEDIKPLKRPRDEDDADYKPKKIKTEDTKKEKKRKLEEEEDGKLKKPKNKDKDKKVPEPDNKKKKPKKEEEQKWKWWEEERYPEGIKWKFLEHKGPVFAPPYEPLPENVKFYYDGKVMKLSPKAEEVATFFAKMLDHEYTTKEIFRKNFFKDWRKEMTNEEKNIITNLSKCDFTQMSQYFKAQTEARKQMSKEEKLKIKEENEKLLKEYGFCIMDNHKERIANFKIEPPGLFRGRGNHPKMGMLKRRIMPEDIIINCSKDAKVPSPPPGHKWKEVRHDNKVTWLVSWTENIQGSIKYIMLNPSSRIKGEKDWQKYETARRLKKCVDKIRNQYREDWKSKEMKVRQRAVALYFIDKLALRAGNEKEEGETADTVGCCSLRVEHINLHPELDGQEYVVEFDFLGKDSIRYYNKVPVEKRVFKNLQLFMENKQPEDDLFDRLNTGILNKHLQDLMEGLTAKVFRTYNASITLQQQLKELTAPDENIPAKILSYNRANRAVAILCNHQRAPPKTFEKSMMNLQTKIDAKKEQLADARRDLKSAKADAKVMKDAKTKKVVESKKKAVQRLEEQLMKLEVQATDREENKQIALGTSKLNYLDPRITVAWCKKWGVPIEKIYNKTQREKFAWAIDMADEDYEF

[5] = test system: T-24; assay: Antiproliferative activity against human T24 cells assessed as cell growth inhibition measured after 48 hrs by MTT assay; type: functional, cell-based; conditions: T-24, 48 h
[6] = test system: T-24; assay: Induction of apoptosis in human T24 cells assessed as upregulation of cytosolic cytochrome-C expression at 2 to 8 uM by Western blot analysis; type: functional, cell-based
[7] = test system: T-24; assay: Induction of apoptosis in human T24 cells assessed as necrotic cells at 4.13 uM by AnnexinV/propidium iodide staining based flow cytometry (reference value: 0.1%); type: functional
[8] = test system: T-24; assay: Induction of morphological changes in human T24 cells by AO/EB staining based assay; type: functional, cell-based
[9] = test system: T-24; assay: Induction of apoptosis in human T24 cells assessed as early apoptotic cells at 4.13 uM by AnnexinV/propidium iodide staining based flow cytometry (reference value: 0.7%); type: functional
[10] = test system: T-24; assay: Anticancer activity against human T24 cells xenografted in mouse assessed as tumor inhibition rate at 5 mg/kg measured at day 14 relative to control; type: functional; conditions: T-24, 336 h
[11] = test system: T-24; assay: Anticancer activity against human T24 cells xenografted in mouse assessed as tumor inhibition rate at 15 mg/kg measured at day 14 relative to control; type: functional; conditions: T-24, 336 h
[12] = test system: SK-OV-3; assay: Antiproliferative activity against human SKOV3 cells assessed as cell growth inhibition measured after 48 hrs by MTT assay; type: functional, cell-based; conditions: SK-OV-3, 48 h
[13] = test system: T-24; assay: Anticancer activity against human T24 cells xenografted in mouse assessed as tumor growth inhibition by measuring T/C ratio at 15 mg/kg measured at day 14 relative to control; type: functional
[14] = test system: T-24; assay: Induction of apoptosis in human T24 cells assessed as necrotic cells at 8.26 uM by AnnexinV/propidium iodide staining based flow cytometry (reference value: 0.1%); type: functional
[15] = Toxicity in mouse xenografted with human T24 cells assessed as adverse effect at 5 to 15 mg/kg; type: organism-based, T-24; conditions: in vivo
[16] = test system: DNA; assay: Induction of Escherichia coli supercoiled circular pBR322 DNA cleavage at 20 to 100 uM by gel electrophoresis mobility shift assay; type: nucleic-acid assay
[17] = test system: HepG2; assay: Anticancer activity against human HepG2 cells xenografted in mouse assessed as tumor growth inhibition by measuring T/C ratio at 15 mg/kg measured at day 14 relative to control; type: functional
[18] = test system: T-24; assay: Induction of apoptosis in human T24 cells assessed as late apoptotic cells at 4.13 uM by AnnexinV/propidium iodide staining based flow cytometry (reference value: 0%); type: functional
[19] = test system: T-24; assay: Cell cycle arrest in human T24 cells assessed as accumulation at G1 phase at 2.06 uM measured after 24 hrs by propidium iodide staining based fluorescence analysis (reference value: 66.18%); type: functional
[20] = test system: T-24; assay: Induction of apoptosis in human T24 cells assessed as necrotic cells at 2.06 uM by AnnexinV/propidium iodide staining based flow cytometry (reference value: 0.1%); type: functional
[21] = test system: T-24; assay: Induction of apoptosis in human T24 cells assessed as live cells at 8.26 uM by AnnexinV/propidium iodide staining based flow cytometry (reference value: 99.1%); type: functional
[22] = test system: T-24; assay: Induction of cell cycle arrest in human T24 cells assessed as upregulation of cdc-2Ty expression at 2 to 8 uM by Western blot analysis; type: functional, cell-based
[23] = test system: T-24; assay: Cell cycle arrest in human T24 cells assessed as accumulation at S phase at 2.06 uM measured after 24 hrs by propidium iodide staining based fluorescence analysis (reference value: 23.67%); type: functional
[24] = test system: HepG2; assay: Anticancer activity against human HepG2 cells xenografted in mouse assessed as tumor growth inhibition by measuring T/C ratio at 5 mg/kg measured at day 14 relative to control; type: functional
[25] = test system: T-24; assay: Anticancer activity against human T24 cells xenografted in mouse assessed as tumor growth inhibition by measuring T/C ratio at 5 mg/kg measured at day 14 relative to control; type: functional
[26] = test system: T-24; assay: Induction of cell cycle arrest in human T24 cells assessed as upregulation of Wee1 expression at 2 to 8 uM by Western blot analysis; type: functional, cell-based
[27] = test system: T-24; assay: Induction of apoptosis in human T24 cells assessed as membrane blebbing by AO/EB staining based assay; type: functional, cell-based
[28] = test system: T-24; assay: Induction of cell cycle arrest in human T24 cells assessed as upregulation of cyclin-B1 expression at 2 to 8 uM by Western blot analysis; type: functional, cell-based
[29] = test system: T-24; assay: Induction of apoptosis in human T24 cells assessed as early apoptotic cells at 8.26 uM by AnnexinV/propidium iodide staining based flow cytometry (reference value: 0.7%); type: functional
[30] = test system: T-24; assay: Induction of apoptosis in human T24 cells assessed as cell budding by AO/EB staining based assay; type: functional
[31] = test system: HepG2; assay: Anticancer activity against human HepG2 cells xenografted in mouse assessed as tumor inhibition rate at 5 mg/kg measured at day 14 relative to control; type: functional; conditions: HepG2, 336 h

Which results are given for CNCCN1C(=O)c2cccc3cc([N+](=O)[O-])cc(c23)C1=O?
Activity [1]: 94.3%; Activity [2]: 30.01%; Activity [3]: 92.24%; inhibition [4]: Active; IC50 [5]: 4.13 µM; Activity [6]: Active; Activity [7]: 0.1%; Activity [8]: Active; Activity [9]: 5.4%; inhibition in vivo at 5 mg/kg [10]: 30.1%; inhibition in vivo at 15 mg/kg [11]: 58.7%; IC50 [12]: 20.7 µM; T/C [13]: 38.4%; Activity [14]: 0%; Activity [15]: Non-Toxic; Activity [16]: inactive; T/C [17]: 38.6%; Activity [18]: 0%; Activity [19]: 50.17%; Activity [20]: 0.2%; Activity [21]: 76.6%; Activity [22]: Active; Activity [23]: 19.81%; T/C [24]: 66.7%; T/C [25]: 62.9%; Activity [26]: Active; Activity [27]: Active; Activity [28]: Active; Activity [29]: 23.4%; Activity [30]: Active; inhibition in vivo at 5 mg/kg [31]: 26.8%
